Results: ChEMBL document CHEMBL1806380, “Rigidized 1-aryl sulfonyl tryptamines: synthesis and pharmacological evaluation as 5-HT6 receptor ligands” (Bioorg Med Chem Lett, 2011)
Activity calls are given as the source filed them. No cut-off for these calls is given here.

Columns and labels:
[1] = target: T1, Muscarinic acetylcholine receptor M1 (Homo sapiens) (UniProt P11229); experiment: Binding affinity to human muscarinic M1 receptor expressed in CHO cells co-expressing pCRE-Luc gene assessed as modulation of acetylcholine-induced intracellular cAMP level at 0.5 uM after 5 hrs by luciferase based luminescence assay; type: cell-based
T1 sequence (whole entry): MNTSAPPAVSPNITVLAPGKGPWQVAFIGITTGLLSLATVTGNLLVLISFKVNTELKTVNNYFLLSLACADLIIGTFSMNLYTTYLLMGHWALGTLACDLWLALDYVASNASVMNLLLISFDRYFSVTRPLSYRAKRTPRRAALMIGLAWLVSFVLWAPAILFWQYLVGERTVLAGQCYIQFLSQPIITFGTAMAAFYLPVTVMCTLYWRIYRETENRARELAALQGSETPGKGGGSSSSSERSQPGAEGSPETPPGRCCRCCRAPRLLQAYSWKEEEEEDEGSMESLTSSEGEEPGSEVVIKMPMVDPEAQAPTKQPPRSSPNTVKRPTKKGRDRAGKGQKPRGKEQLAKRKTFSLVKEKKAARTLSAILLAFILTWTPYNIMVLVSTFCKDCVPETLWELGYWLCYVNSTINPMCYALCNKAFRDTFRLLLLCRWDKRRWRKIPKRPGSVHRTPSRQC

[2] = AUCt in Wistar rat at 10 mg/kg, po; type: ADME, organism-based; parameters: dose 10 mg/kg, route oral; conditions: plasma
[3] = Apparent volume of distribution in Wistar rat at 10 mg/kg, iv; type: ADME, organism-based; parameters: dose 10 mg/kg, route intravenous; conditions: in vivo, read-out: Vz
[4] = target: 5-hydroxytryptamine receptor 2A (Homo sapiens) (UniProt P28223); experiment: Inhibition of 5HT2A receptor at 0.5 uM
[5] = tested on: Rattus norvegicus; experiment: Cognitive enhancing effect against scopolamine-induced memory deficit in rat at 10 mg/kg, po by morris water maze test; type: functional, organism-based; parameters: dose 10 mg/kg
[6] = Clearance in Wistar rat at 10 mg/kg, po; type: ADME, organism-based; parameters: dose 10 mg/kg, route oral; conditions: in vivo
[7] = tested on: Rattus norvegicus; experiment: Cognitive enhancing effect in rat at 10 mg/kg, po after 60 mins by novel object recognition test; type: functional, organism-based; parameters: dose 10 mg/kg
[8] = Oral bioavailability in Wistar rat at 10 mg/kg; type: ADME, organism-based; conditions: in vivo
[9] = target: D(2) dopamine receptor (Homo sapiens) (UniProt P14416); experiment: Inhibition of dopamine D2 receptor at 0.5 uM
[10] = target: 5-hydroxytryptamine receptor 6 (Homo sapiens) (UniProt P50406); experiment: Binding affinity to human recombinant 5HT6 receptor expressed in CHO cells co-expressing pCRE-Luc gene assessed as modulation of serotonin-induced intracellular cAMP level after 4 hrs by luciferase based luminescence assay; type: cell-based
[11] = target: Sodium-dependent serotonin transporter (Homo sapiens) (UniProt P31645); experiment: Inhibition of SERT at 0.5 uM
[12] = Metabolic stability in human liver microsomes assessed as drug metabolized level after 30 mins; type: ADME, Microsome; conditions: read-out: Activity
[13] = target: T2, Alpha-1B adrenergic receptor (Homo sapiens) (UniProt P35368); experiment: Inhibition of adrenergic alpha1b receptor at 0.5 uM
T2 sequence (whole entry): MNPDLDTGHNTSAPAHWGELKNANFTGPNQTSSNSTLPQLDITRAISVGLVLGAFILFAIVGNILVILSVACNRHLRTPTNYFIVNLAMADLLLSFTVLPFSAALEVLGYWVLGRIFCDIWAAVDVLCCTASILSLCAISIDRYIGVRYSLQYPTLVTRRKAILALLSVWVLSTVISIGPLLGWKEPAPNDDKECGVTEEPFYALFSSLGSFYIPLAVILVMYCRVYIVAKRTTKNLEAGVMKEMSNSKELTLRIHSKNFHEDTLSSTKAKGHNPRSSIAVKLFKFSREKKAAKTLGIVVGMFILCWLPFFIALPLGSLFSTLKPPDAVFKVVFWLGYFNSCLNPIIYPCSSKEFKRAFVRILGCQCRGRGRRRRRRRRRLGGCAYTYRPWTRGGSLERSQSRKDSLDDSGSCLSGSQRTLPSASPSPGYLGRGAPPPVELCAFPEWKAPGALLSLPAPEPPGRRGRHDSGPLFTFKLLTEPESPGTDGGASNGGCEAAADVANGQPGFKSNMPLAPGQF

[14] = target: Histamine H1 receptor (Homo sapiens) (UniProt P35367); experiment: Inhibition of histamine H1 receptor at 0.5 uM
[15] = tested on: Rattus norvegicus; experiment: Apparent volume of distribution in Wistar rat at 10 mg/kg, po; type: ADME, organism-based; parameters: dose 10 mg/kg, route oral; conditions: in vivo
[16] = target: Sodium-dependent noradrenaline transporter (Homo sapiens) (UniProt P23975); experiment: Inhibition of NET at 0.5 uM
[17] = Half life in Wistar rat at 10 mg/kg, po; type: ADME, organism-based; parameters: dose 10 mg/kg, route oral; conditions: in vivo
[18] = target: Cytochrome P450 3A4 (Homo sapiens, UniProt P08684); experiment: Inhibition of CYP3A4; type: ADME
[19] = AUCt in Wistar rat at 10 mg/kg, iv; type: ADME, organism-based; parameters: dose 10 mg/kg, route intravenous; conditions: plasma
[20] = Cmax in Wistar rat at 10 mg/kg, po; type: ADME, organism-based; parameters: dose 10 mg/kg, route oral; conditions: in vivo
[21] = Ratio of drug level in brain to plasma in Wistar rat at 1 mg/kg, iv after 6 hrs; type: ADME, organism-based; parameters: dose 1 mg/kg, route intravenous
[22] = Metabolic stability in rat liver microsomes assessed as drug metabolized level after 30 mins; type: ADME, Microsome; conditions: read-out: Activity
[23] = Cmax in Wistar rat at 10 mg/kg, iv; type: ADME, organism-based; parameters: dose 10 mg/kg, route intravenous; conditions: in vivo
[24] = Clearance in Wistar rat at 10 mg/kg, iv; type: ADME, organism-based; parameters: dose 10 mg/kg, route intravenous; conditions: in vivo
[25] = target: Sodium-dependent dopamine transporter (Homo sapiens) (UniProt Q01959); experiment: Inhibition of DAT at 0.5 uM
[26] = target: 5-hydroxytryptamine receptor 4 (Homo sapiens) (UniProt Q13639); experiment: Binding affinity to human recombinant 5HT4 receptor expressed in CHO cells co-expressing pCRE-Luc gene assessed as modulation of serotonin-induced intracellular cAMP level at 0.5 uM after 5 hrs by luciferase based luminescence assay; type: cell-based
[27] = Half life in Wistar rat at 10 mg/kg, iv; type: ADME, organism-based; parameters: dose 10 mg/kg, route intravenous; conditions: in vivo
[28] = target: T3, 5-hydroxytryptamine receptor 2C (Homo sapiens) (UniProt P28335); experiment: Inhibition of 5HT2C receptor at 0.5 uM
T3 sequence (whole entry): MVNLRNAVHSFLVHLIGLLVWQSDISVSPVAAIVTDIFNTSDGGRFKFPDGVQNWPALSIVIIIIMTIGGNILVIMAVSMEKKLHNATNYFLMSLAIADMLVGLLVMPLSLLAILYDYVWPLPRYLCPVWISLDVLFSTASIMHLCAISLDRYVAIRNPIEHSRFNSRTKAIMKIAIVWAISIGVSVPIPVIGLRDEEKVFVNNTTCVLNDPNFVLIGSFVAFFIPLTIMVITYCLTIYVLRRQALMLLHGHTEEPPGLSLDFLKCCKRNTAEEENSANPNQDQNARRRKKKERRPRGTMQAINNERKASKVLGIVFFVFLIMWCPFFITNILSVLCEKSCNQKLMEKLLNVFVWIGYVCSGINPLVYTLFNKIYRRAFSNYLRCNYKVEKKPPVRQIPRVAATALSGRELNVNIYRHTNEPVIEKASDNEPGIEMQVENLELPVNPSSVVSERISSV

[29] = target: Cytochrome P450 2D6 (Homo sapiens, UniProt P10635); experiment: Inhibition of CYP2D6; type: ADME
[30] = target: 5-hydroxytryptamine receptor 7 (Rattus norvegicus) (UniProt P32305); experiment: Binding affinity to rat 5HT7 receptor expressed in CHO cells co-expressing pCRE-Luc gene assessed as modulation of serotonin-induced intracellular cAMP level at 0.5 uM after 5 hrs by luciferase based luminescence assay; type: cell-based
Sequence of 5-hydroxytryptamine receptor 7 (Rattus norvegicus) (P32305 whole entry): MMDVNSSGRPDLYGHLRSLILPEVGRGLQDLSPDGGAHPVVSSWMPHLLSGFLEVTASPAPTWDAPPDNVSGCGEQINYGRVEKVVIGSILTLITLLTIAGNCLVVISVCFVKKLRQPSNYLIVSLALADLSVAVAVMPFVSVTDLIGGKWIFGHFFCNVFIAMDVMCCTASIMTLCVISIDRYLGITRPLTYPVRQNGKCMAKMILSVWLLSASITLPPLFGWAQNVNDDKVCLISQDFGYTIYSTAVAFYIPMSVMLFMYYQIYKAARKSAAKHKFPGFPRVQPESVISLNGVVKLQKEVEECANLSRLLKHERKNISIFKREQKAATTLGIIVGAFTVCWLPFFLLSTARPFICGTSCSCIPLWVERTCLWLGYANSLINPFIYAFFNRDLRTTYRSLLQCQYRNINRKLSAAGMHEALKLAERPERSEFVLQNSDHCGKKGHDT

Sequence of 5-hydroxytryptamine receptor 6 (Homo sapiens) (P50406 whole entry): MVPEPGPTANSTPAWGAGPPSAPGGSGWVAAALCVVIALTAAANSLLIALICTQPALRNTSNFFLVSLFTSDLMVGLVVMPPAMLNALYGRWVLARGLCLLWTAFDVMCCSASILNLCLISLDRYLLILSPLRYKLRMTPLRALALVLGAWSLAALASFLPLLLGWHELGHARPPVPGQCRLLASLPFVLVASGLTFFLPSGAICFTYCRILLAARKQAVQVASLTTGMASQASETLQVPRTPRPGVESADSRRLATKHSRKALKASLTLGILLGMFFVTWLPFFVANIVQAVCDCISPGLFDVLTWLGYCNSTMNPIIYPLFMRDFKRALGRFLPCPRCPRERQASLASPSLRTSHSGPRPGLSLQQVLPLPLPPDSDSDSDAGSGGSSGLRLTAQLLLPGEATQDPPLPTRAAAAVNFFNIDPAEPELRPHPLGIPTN
Sequence of Sodium-dependent serotonin transporter (Homo sapiens) (P31645 whole entry, looked up): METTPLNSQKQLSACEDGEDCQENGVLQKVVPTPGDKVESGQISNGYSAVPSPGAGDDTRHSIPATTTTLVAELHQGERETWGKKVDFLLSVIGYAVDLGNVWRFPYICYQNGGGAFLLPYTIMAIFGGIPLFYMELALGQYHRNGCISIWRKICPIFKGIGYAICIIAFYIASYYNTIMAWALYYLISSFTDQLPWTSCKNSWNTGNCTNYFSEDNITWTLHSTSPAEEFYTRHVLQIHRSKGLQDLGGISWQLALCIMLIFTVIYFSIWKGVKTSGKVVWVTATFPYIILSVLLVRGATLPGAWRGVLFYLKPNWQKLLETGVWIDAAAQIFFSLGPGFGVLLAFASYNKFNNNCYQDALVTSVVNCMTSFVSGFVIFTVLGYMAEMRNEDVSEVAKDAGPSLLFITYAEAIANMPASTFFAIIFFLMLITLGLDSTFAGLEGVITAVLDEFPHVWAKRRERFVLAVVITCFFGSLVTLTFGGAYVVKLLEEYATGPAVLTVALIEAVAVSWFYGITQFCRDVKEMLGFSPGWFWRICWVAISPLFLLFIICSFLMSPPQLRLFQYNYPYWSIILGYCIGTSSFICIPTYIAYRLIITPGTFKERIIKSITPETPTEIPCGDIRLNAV
Sequence of 5-hydroxytryptamine receptor 2A (Homo sapiens) (P28223 whole entry): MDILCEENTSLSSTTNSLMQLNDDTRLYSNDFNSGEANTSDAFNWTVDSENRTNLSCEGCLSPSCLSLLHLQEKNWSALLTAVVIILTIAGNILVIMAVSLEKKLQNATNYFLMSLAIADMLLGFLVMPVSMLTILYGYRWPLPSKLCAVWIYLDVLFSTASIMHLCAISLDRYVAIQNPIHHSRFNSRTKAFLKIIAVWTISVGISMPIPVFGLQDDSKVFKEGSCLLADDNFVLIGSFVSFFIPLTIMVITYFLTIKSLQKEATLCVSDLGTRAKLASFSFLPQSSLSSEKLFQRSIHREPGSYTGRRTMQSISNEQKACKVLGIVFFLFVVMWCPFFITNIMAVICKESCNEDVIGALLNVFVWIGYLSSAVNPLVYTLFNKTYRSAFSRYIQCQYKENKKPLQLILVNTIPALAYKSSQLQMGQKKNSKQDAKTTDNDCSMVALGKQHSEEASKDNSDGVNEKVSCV
Sequence of D(2) dopamine receptor (Homo sapiens) (P14416 whole entry): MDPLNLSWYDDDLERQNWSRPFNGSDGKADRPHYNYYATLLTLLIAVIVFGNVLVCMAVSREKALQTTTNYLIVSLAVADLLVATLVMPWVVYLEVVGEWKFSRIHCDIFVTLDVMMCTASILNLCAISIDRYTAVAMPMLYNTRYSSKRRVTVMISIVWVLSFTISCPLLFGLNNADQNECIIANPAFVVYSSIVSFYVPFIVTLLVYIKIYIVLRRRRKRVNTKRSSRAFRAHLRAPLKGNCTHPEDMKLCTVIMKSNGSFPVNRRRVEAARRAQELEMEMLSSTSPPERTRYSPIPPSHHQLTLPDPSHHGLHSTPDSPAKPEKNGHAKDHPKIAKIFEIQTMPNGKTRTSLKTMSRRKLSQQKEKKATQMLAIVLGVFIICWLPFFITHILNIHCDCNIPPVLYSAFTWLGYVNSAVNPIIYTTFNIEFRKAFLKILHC
Sequence of 5-hydroxytryptamine receptor 4 (Homo sapiens) (Q13639 whole entry): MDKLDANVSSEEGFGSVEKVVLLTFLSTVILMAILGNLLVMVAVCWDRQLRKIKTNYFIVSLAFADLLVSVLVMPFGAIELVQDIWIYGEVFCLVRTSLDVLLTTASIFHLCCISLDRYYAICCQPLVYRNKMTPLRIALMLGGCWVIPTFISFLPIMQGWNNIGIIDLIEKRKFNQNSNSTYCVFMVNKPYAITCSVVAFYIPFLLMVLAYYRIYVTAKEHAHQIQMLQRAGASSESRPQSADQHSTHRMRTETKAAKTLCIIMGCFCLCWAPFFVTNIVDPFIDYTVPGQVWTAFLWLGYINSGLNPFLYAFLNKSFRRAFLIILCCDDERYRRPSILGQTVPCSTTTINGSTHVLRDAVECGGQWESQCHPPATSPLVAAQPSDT
Sequence of Sodium-dependent dopamine transporter (Homo sapiens) (Q01959 whole entry): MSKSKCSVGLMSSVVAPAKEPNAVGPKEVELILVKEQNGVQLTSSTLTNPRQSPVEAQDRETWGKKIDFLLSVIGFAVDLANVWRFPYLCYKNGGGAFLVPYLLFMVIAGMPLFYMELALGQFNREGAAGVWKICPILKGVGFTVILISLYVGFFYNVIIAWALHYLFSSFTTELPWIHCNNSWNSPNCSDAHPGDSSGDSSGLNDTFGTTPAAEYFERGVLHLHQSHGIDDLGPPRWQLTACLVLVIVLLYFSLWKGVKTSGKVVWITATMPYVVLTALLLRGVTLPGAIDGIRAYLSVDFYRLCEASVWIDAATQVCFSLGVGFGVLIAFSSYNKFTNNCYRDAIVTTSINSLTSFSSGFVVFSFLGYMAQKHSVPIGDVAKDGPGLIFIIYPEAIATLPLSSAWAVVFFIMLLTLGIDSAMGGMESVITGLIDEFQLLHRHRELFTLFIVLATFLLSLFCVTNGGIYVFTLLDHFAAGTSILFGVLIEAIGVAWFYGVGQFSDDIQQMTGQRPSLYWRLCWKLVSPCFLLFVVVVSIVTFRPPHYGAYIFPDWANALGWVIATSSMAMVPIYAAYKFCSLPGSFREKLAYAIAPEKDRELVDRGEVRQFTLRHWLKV
Sequence of Histamine H1 receptor (Homo sapiens) (P35367 whole entry): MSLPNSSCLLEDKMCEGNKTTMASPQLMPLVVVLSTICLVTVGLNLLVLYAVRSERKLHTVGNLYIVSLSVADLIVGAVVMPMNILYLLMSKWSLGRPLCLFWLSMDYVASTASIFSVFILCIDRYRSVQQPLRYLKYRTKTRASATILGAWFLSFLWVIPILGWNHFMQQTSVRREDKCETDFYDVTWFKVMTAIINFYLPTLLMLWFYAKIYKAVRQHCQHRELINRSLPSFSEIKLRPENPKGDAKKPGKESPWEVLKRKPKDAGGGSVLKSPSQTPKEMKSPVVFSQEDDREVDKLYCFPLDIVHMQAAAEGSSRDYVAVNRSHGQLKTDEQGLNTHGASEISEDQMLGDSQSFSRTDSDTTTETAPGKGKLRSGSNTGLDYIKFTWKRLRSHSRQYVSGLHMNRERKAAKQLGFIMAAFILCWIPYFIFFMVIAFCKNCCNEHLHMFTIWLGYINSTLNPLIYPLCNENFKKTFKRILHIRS
Sequence of Sodium-dependent noradrenaline transporter (Homo sapiens) (P23975 whole entry): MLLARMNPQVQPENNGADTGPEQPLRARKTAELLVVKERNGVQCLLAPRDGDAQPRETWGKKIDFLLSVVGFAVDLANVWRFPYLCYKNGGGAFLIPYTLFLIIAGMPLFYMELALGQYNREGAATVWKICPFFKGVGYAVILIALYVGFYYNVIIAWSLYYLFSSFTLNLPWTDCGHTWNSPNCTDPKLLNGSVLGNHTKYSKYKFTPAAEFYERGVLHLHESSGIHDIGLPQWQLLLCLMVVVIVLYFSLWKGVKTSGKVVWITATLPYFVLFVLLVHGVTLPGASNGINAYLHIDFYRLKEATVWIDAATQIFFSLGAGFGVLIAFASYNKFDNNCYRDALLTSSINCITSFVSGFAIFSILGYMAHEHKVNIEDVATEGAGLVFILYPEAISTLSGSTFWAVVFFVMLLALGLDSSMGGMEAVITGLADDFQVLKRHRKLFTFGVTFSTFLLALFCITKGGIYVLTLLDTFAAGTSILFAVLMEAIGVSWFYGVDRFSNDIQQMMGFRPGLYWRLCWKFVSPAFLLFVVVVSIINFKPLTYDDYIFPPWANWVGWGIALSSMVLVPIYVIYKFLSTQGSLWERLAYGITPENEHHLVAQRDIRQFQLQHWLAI

inhibition [1]: < 50%
AUC(0-t) [2]: 268 ng·h/mL
Vd [3]: 34.9 L/kg
inhibition [4]: < 50%
CL/F [6]: 585 mL/min/kg
bioavailability [8]: 12%
inhibition [9]: < 50%
Kb [10]: 0.0001 µM
inhibition [11]: < 50%
metabolised at 0.5 h [12]: 43%
inhibition [13]: < 50%
inhibition [14]: < 50%
Vz [15]: 196.287 L/kg
inhibition [16]: < 50%
half-life [17]: 3.75 h
IC50 [18]: 14.7 µM
AUC(0-t) [19]: 2320 ng·h/mL
Cmax [20]: 105 ng/mL
Kp at 6 h [21]: 1.79
metabolised at 0.5 h [22]: 70%
Cmax [23]: 2690 ng/mL
clearance [24]: 72.5 mL/min/kg
inhibition [25]: < 50%
inhibition [26]: < 50%
half-life [27]: 5.48 h
inhibition [28]: < 50%
IC50 [29]: 21.1 µM
inhibition [30]: < 50%
SMILES: CN1CC(Cl)=C(c2cn(S(=O)(=O)c3ccccc3)c3ccccc23)C1
Activity [5]: Active
Activity [7]: Active
